# Measurements from PubChem BioAssay (NCI).
#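 Cultured in 96-well plates, cells were exposed to test compound for 48 hours across five concentrations. TGI: total growth inhibition.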
# Assays:
# Test in all cases: NCI anticancer screen, dose series, 48 h
# [1] = system: A549 NSCLC
# [2] = system: NCI-H23 lung
# [3] = system: DU-145 prostate
# [4] = system: T-47D breast
# [5] = system: OVCAR-5 ovarian
# [6] = system: KM12 colon
# [7] = system: LOX IMVI melanoma
# [8] = system: NCI/ADR-RES ovarian
# [9] = system: SN12C renal
# [10] = system: M14 melanoma
# [11] = system: UO-31 renal
# [12] = system: A498 renal
# [13] = system: OVCAR-8 ovarian
# [14] = system: TK-10 renal
# [15] = system: MOLT-4 leukemia
# [16] = system: HOP-62 NSCLC
# [17] = system: MDA-N
# [18] = system: SF-268 CNS
# [19] = system: MALME-3M melanoma
# [20] = system: SF-539 CNS
# [21] = system: ACHN renal
# [22] = system: CCRF-CEM leukemia
# [23] = system: HCT-15 colon
# [24] = system: SK-MEL-2 melanoma
# [25] = system: MDA-MB-231 breast
# [26] = system: HCC-2998 colon
# [27] = system: HL-60(TB) leukemia
# [28] = system: K-562 leukemia
# [29] = system: SK-OV-3 ovarian
# [30] = system: NCI-H522 lung
# [31] = system: MDA-MB-435
# [32] = system: EKVX NSCLC
# [33] = system: PC-3 prostate
# [34] = system: NCI-H226 lung
# [35] = system: HCT-116 colon
# [36] = system: SK-MEL-28 melanoma
# [37] = system: U251 CNS
# [38] = system: HS 578T breast
# [39] = system: COLO 205 colon
# [40] = system: HT29 colon
# [41] = system: SK-MEL-5 melanoma
# [42] = system: SNB-75 CNS
# [43] = system: SR leukemia
# [44] = system: IGROV1 ovarian
# [45] = system: RXF 393 renal
# [46] = system: NCI-H460 lung
# [47] = system: SNB-19 CNS
# [48] = system: SW-620 colon
# [49] = system: HOP-92 NSCLC
# [50] = system: MCF7 breast
# [51] = system: 786-0 renal
# [52] = system: OVCAR-3 ovarian
# [53] = system: UACC-257 melanoma
# [54] = system: SF-295 CNS
# [55] = system: BT-549 breast
# [56] = system: OVCAR-4 ovarian
# [57] = system: RPMI-8226 leukemia
# [58] = system: UACC-62 melanoma
# [59] = system: CAKI-1 renal
structure (smiles),measurement,setting,value
CSc1ccc(/C=C/c2ccnc3ccccc23)cc1,TGI,[1],25 µM
same,TGI,[2],28.4 µM
same,TGI,[3],32.7 µM
same,TGI,[4],41.7 µM
same,TGI,[5],35 µM
same,TGI,[6],> 100 µM
same,TGI,[7],25.4 µM
same,TGI,[8],29.5 µM
same,TGI,[9],28.8 µM
same,TGI,[10],22.1 µM
same,TGI,[11],26.5 µM
same,TGI,[12],29.2 µM
same,TGI,[13],28.8 µM
same,TGI,[14],26.8 µM
same,TGI,[15],66.9 µM
same,TGI,[16],34.8 µM
same,TGI,[17],27 µM
same,TGI,[18],66 µM
same,TGI,[19],32.6 µM
same,TGI,[20],32.7 µM
same,TGI,[21],29.5 µM
same,TGI,[22],78.3 µM
same,TGI,[23],25.7 µM
same,TGI,[24],30.1 µM
same,TGI,[25],30.8 µM
same,TGI,[26],27.4 µM
same,TGI,[27],24.4 µM
same,TGI,[28],30.9 µM
same,TGI,[29],33.3 µM
same,TGI,[30],28.6 µM
same,TGI,[31],12.5 µM
same,TGI,[32],22.3 µM
same,TGI,[33],19.2 µM
same,TGI,[34],29 µM
same,TGI,[35],22.3 µM
same,TGI,[36],32.6 µM
same,TGI,[37],25.4 µM
same,TGI,[38],43.4 µM
same,TGI,[39],27.5 µM
same,TGI,[40],31 µM
same,TGI,[41],18.9 µM
same,TGI,[42],44.6 µM
same,TGI,[43],32.9 µM
same,TGI,[44],39.4 µM
same,TGI,[45],33 µM
same,TGI,[46],27.3 µM
same,TGI,[47],34 µM
same,TGI,[48],27 µM
same,TGI,[49],30.2 µM
same,TGI,[50],28.6 µM
same,TGI,[51],27.9 µM
same,TGI,[52],25.9 µM
same,TGI,[53],32.9 µM
same,TGI,[54],27.5 µM
O=C(c1ccc(Br)cc1)n1c2ccc(Br)cc2c2nc3ccccc3nc21,TGI,[2],> 100 µM
same,TGI,[3],> 100 µM
same,TGI,[55],> 100 µM
same,TGI,[4],> 100 µM
same,TGI,[5],> 100 µM
same,TGI,[6],> 100 µM
same,TGI,[7],> 100 µM
same,TGI,[8],> 100 µM
same,TGI,[9],> 100 µM
same,TGI,[10],> 100 µM
same,TGI,[11],> 100 µM
same,TGI,[13],> 100 µM
same,TGI,[14],> 100 µM
same,TGI,[15],> 100 µM
same,TGI,[16],> 100 µM
same,TGI,[56],> 100 µM
same,TGI,[57],> 100 µM
same,TGI,[17],> 100 µM
same,TGI,[18],> 100 µM
same,TGI,[19],> 100 µM
same,TGI,[20],> 100 µM
same,TGI,[21],> 100 µM
same,TGI,[22],> 100 µM
same,TGI,[23],> 100 µM
same,TGI,[24],> 100 µM
same,TGI,[58],> 100 µM
same,TGI,[59],> 100 µM
same,TGI,[26],> 100 µM
same,TGI,[27],> 100 µM
same,TGI,[28],> 100 µM
same,TGI,[30],> 100 µM
same,TGI,[31],> 100 µM
same,TGI,[32],> 100 µM
same,TGI,[33],> 100 µM
same,TGI,[34],> 100 µM
same,TGI,[35],> 100 µM
same,TGI,[36],> 100 µM
same,TGI,[37],> 100 µM
same,TGI,[39],> 100 µM
same,TGI,[40],> 100 µM
same,TGI,[41],> 100 µM
same,TGI,[42],> 100 µM
same,TGI,[43],> 100 µM
same,TGI,[44],> 100 µM
same,TGI,[45],> 100 µM
same,TGI,[46],> 100 µM
same,TGI,[47],> 100 µM
same,TGI,[48],> 100 µM
same,TGI,[49],> 100 µM
same,TGI,[50],> 100 µM
same,TGI,[51],> 100 µM
same,TGI,[52],> 100 µM
same,TGI,[53],> 100 µM
same,TGI,[54],> 100 µM
CC#CCCN(CC#N)Cc1ccccc1,TGI,[1],> 100 µM
same,TGI,[2],> 100 µM
same,TGI,[3],> 100 µM
same,TGI,[4],> 100 µM
same,TGI,[5],> 100 µM
same,TGI,[6],> 100 µM
same,TGI,[7],> 100 µM
same,TGI,[8],> 100 µM
same,TGI,[9],> 100 µM
same,TGI,[10],> 100 µM
same,TGI,[11],> 100 µM
same,TGI,[12],37.2 µM
same,TGI,[13],> 100 µM
same,TGI,[14],> 100 µM
same,TGI,[15],> 100 µM
same,TGI,[16],> 100 µM
same,TGI,[56],> 100 µM
same,TGI,[57],> 100 µM
same,TGI,[17],> 100 µM
same,TGI,[18],> 100 µM
same,TGI,[19],> 100 µM
same,TGI,[21],48 µM
same,TGI,[22],> 100 µM
same,TGI,[23],> 100 µM
same,TGI,[24],> 100 µM
same,TGI,[58],32.9 µM
same,TGI,[59],> 100 µM
same,TGI,[25],> 100 µM
same,TGI,[26],> 100 µM
same,TGI,[27],> 100 µM
same,TGI,[28],> 100 µM
same,TGI,[29],> 100 µM
same,TGI,[30],> 100 µM
same,TGI,[31],> 100 µM
same,TGI,[32],> 100 µM
same,TGI,[33],> 100 µM
same,TGI,[34],> 100 µM
same,TGI,[35],> 100 µM
same,TGI,[36],> 100 µM
same,TGI,[37],> 100 µM
same,TGI,[38],> 100 µM
same,TGI,[39],> 100 µM
same,TGI,[40],> 100 µM
same,TGI,[41],> 100 µM
same,TGI,[42],> 100 µM
same,TGI,[43],> 100 µM
same,TGI,[44],> 100 µM
same,TGI,[45],> 100 µM
same,TGI,[46],> 100 µM
same,TGI,[47],> 100 µM
same,TGI,[49],> 100 µM
same,TGI,[50],44.7 µM
same,TGI,[51],> 100 µM
same,TGI,[53],> 100 µM
same,TGI,[54],> 100 µM
O=C1c2scc(-c3ccc(Cl)cc3)c2-n2cccc21,TGI,[1],> 100 µM
same,TGI,[3],> 100 µM
same,TGI,[4],> 100 µM
same,TGI,[5],> 100 µM
same,TGI,[6],> 100 µM
same,TGI,[7],> 100 µM
same,TGI,[10],> 100 µM
same,TGI,[12],2.78 µM
same,TGI,[15],> 100 µM
same,TGI,[57],> 100 µM
same,TGI,[17],> 100 µM
same,TGI,[19],> 100 µM
same,TGI,[21],> 100 µM
same,TGI,[22],> 100 µM
same,TGI,[24],> 100 µM
same,TGI,[58],> 100 µM
same,TGI,[25],> 100 µM
same,TGI,[26],> 100 µM
same,TGI,[28],> 100 µM
same,TGI,[29],> 100 µM
same,TGI,[30],> 100 µM
same,TGI,[31],> 100 µM
same,TGI,[32],> 100 µM
same,TGI,[33],> 100 µM
same,TGI,[36],> 100 µM
same,TGI,[39],> 100 µM
same,TGI,[41],> 100 µM
same,TGI,[42],> 100 µM
same,TGI,[43],13.7 µM
same,TGI,[44],> 100 µM
same,TGI,[45],> 100 µM
same,TGI,[46],> 100 µM
same,TGI,[48],> 100 µM
same,TGI,[52],> 100 µM
same,TGI,[53],> 100 µM
same,TGI,[54],> 100 µM
